Earlier results, collected in patent publication US11053254B2, “Crystalline forms of mitomycin C for treatment of cancer” (TRANSGENEX NANOBIOTECH, INC., priority 2018, dated 2021).

Conditions: acidic solutions with pH<6

CO[C@@]12[C@H](COC(N)=O)C3=C(C(=O)C(C)=C(N)C3=O)N1C[C@@H]1N[C@@H]12 [Mitomycin C, [(4S,6S,7R,8S)-11-amino-7-methoxy-12-methyl-10,13-dioxo-2,5-diazatetracyclo[7.4.0.0^2,7.0^4,6]trideca-1(9),11-dien-8-yl]methyl carbamate]
degradation in acidic solutions: rapid degradation
